Experimental data as given in ChEMBL document CHEMBL5331096, “Pseudo-irreversible butyrylcholinesterase inhibitors: Structure-activity relationships, computational and crystallographic study of the N-dialkyl O-arylcarbamate warhead” (Eur J Med Chem, 2023).
Calls of active or inactive are those of the source. No cut-off for these calls is given here.

How the values were obtained:
[1] = biological target: T1, Cholinesterase (Homo sapiens, UniProt P06276); test: Inhibition of human BChE using butyrylthiocholine iodide as substrate preincubated for 5 mins followed by substrate addition and measured for 2 mins by spectrophotometry based Ellman's method
T1 sequence (P06276 whole entry): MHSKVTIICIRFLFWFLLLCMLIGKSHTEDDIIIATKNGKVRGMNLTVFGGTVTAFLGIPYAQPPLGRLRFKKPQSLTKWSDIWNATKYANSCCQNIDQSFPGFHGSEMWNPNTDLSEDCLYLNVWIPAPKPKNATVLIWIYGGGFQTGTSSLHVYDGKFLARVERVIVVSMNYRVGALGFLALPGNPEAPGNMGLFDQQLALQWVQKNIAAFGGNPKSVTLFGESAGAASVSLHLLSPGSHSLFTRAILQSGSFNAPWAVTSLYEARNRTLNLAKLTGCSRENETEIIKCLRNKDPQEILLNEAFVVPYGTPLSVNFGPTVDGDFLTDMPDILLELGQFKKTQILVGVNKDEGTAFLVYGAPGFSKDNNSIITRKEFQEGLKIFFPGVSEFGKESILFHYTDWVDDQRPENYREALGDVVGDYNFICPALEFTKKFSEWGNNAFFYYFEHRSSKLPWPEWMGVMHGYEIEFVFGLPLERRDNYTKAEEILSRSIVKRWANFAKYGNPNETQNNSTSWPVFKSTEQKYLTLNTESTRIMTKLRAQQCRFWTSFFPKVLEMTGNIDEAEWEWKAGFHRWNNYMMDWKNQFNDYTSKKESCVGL

[2] = biological target: T2, Acetylcholinesterase (Homo sapiens, UniProt P22303); test: Inhibition of human AChE using acetylthiocholine iodide as substrate preincubated for 5 mins followed by substrate addition and measured for 2 mins by spectrophotometry based Ellman's method
T2 sequence (P22303 whole entry): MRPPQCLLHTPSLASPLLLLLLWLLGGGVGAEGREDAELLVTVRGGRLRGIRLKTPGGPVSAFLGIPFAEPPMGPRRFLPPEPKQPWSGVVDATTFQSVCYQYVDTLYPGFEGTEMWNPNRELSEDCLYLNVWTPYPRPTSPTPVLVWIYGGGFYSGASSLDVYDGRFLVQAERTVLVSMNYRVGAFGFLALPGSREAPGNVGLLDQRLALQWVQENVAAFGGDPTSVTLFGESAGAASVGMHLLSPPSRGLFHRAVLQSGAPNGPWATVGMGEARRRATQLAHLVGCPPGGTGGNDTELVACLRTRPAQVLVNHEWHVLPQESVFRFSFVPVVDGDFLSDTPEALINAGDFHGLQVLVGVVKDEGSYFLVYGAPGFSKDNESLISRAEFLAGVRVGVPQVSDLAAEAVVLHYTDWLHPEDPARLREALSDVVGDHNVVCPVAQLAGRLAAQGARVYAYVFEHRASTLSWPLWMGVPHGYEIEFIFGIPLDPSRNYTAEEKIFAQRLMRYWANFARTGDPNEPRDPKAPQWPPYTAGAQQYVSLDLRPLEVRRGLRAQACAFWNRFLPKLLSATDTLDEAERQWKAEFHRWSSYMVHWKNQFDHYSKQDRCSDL

[3] = biological target: T2, Acetylcholinesterase; test: Time dependent inhibition of human AChE using acetylthiocholine iodide as substrate preincubated for 5 mins followed by substrate addition and measured for 2 mins by spectrophotometry based Ellman's method; conditions: time 7.0 min
[4] = biological target: T1, Cholinesterase; test: Binding affinity to human BChE assessed as decarbamoylation rate constant at 25 degree C incubated for 1 hr by Ellman's method
[5] = biological target: T1, Cholinesterase; test: Binding affinity to human BChE assessed as gibbs free energy change
[6] = biological target: T1, Cholinesterase; test: Binding affinity to human BChE assessed as half life incubated for 1 hr by Ellman's method
[7] = biological target: T1, Cholinesterase; test: Time dependent inhibition of human BChE using butyrylthiocholine iodide as substrate preincubated for 5 mins followed by substrate addition and measured for 2 mins by spectrophotometry based Ellman's method; conditions: time 7.0 min
[8] = biological target: T2, Acetylcholinesterase; test: Inhibition of human AChE assessed as residual activity using acetylthiocholine iodide as substrate at 100 uM preincubated for 30 mins followed by substrate addition and measured for 2 mins by spectrophotometry based Ellman's method relative to control; conditions: time 32.0 min
[9] = biological target: T2, Acetylcholinesterase; test: Time dependent inhibition of human AChE using acetylthiocholine iodide as substrate preincubated for 30 mins followed by substrate addition and measured for 2 mins by spectrophotometry based Ellman's method; conditions: time 32.0 min
[10] = biological target: T1, Cholinesterase; test: Time dependent inhibition of human BChE using butyrylthiocholine iodide as substrate preincubated for 30 mins followed by substrate addition and measured for 2 mins by spectrophotometry based Ellman's method; conditions: time 32.0 min
[11] = biological target: T1, Cholinesterase; test: Inhibition of human BChE using butyrylthiocholine iodide as substrate preincubated for 30 mins followed by substrate addition and measured for 2 mins by spectrophotometry based Ellman's method
[12] = biological target: T1, Cholinesterase; test: Binding affinity to human BChE plasma assessed as appearance of fluorescent bands at 10 uM incubated for 30 mins in presence of ethopropazine by Western blot analysis; format: cell-free
[13] = biological target: T1, Cholinesterase; test: Binding affinity to human BChE plasma assessed as appearance of fluorescent bands at 10 uM incubated for 30 mins by Western blot analysis; format: cell-free
[14] = biological target: T1, Cholinesterase; test: Binding affinity to human BChE plasma assessed as appearance of fluorescent bands at 10 uM incubated for 30 mins in presence of BW284c51 by Western blot analysis; format: cell-free
[15] = biological target: T1, Cholinesterase; test: Binding affinity to human BChE plasma assessed as appearance of fluorescent bands at 10 uM incubated for 30 mins in presence of isoOMPA by Western blot analysis; format: cell-free
[16] = biological target: T2, Acetylcholinesterase; test: Binding affinity to recombinant human AChE assessed as appearance of fluorescent bands at 10 uM incubated for 4 hrs in presence of BW284c51 by Western blot analysis
[17] = biological target: T1, Cholinesterase; test: Binding affinity to recombinant human BChE assessed as appearance of fluorescent bands at 10 uM incubated for 4 hrs by Western blot analysis
[18] = biological target: T2, Acetylcholinesterase; test: Binding affinity to recombinant human AChE assessed as appearance of fluorescent bands at 10 uM incubated for 4 hrs by Western blot analysis
[19] = biological target: T1, Cholinesterase; test: Binding affinity to human BChE assessed as inhibition constant
[20] = biological target: T1, Cholinesterase; test: Binding affinity to human BChE assessed as pseudo-first order inhibition rate at 5 nM by Ellman's method
[21] = biological target: T1, Cholinesterase; test: Binding affinity to human BChE assessed as pseudo-first order inhibition rate at 50 nM by Ellman's method
[22] = biological target: Cholinesterases; ACHE & BCHE (Homo sapiens) (UniProt P06276+P22303); test: Selectivity ratio of IC50 for human AChE to IC50 for human BChE; format: protein assay
Cholinesterases; ACHE & BCHE (Homo sapiens), sequence (P06276 whole entry, looked up): as the sequence (P06276 whole entry) above
Cholinesterases; ACHE & BCHE (Homo sapiens), sequence (P22303 whole entry, looked up): as the sequence (P22303 whole entry) above

[23] = biological target: T1, Cholinesterase; test: Binding affinity to human BChE assessed as pseudo-first order inhibition rate at 20 nM by Ellman's method
[24] = test system: SH-SY5Y; test: Cytotoxicity against human SH-SY5Y cells assessed as inhibition of cell growth measured after 48 hrs by MTS assay; format: functional, cell-based
[25] = test system: HepG2; test: Cytotoxicity against human HepG2 cells assessed as inhibition of cell growth measured after 48 hrs by MTS assay; format: functional, cell-based; conditions: HepG2, 48 h
[26] = biological target: T1, Cholinesterase; test: Binding affinity to human BChE assessed as carbamoylation rate constant by Ellman's method
[27] = biological target: T1, Cholinesterase; test: Binding affinity to human BChE assessed as pseudo-first order inhibition rate at 10 nM by Ellman's method

| Compound | IC50 [1] | IC50 [2] | inhibition [3] | inhibition [7] | also measured |
| --- | --- | --- | --- | --- | --- |
| C#CCN(CC#C)C(=O)Oc1cccc2c(CN(C)CCC3CCCCCC3)c[nH]c12 | 32.8 nM | 464 nM | Active | – | K [4]: 0.062 h⁻¹; deltaG [5]: 24 kcal/mol; T1/2 [6]: 11.2 h |
| CN(CCC1CCCCCC1)Cc1c[nH]c2c(OC(=O)N3CCOCC3)cccc12 | 11.4 nM | 3580 nM | Active | – | – |
| CN(CCC1CCCCCC1)Cc1c[nH]c2c(OC(=O)N(C)N(C)C)cccc12 | 13.2 nM | 5560 nM | Active | Active | – |
| CN(CCC1CCCCCC1)Cc1c[nH]c2c(OC(=O)N(C)C(C)(C)C)cccc12 | 147 nM | 10000 nM | inactive | inactive | – |
| CN(CCC1CCCCCC1)Cc1c[nH]c2c(OC(=O)N(C)Cc3ccccc3)cccc12 | 11.6 nM | 531 nM | Active | Active | K [4]: 0.007 h⁻¹; deltaG [5]: 25.2 kcal/mol; T1/2 [6]: 92.2 h |
| CN(C)C(=O)Oc1cccc2cc[nH]c12 | – | – | – | – | Activity [8]: 2.4%; inhibition [9]: Active; inhibition [10]: Active; IC50 [11]: 1660 nM |
| C#CCCCCCCCCCN(C)C(=O)Oc1cccc2c(CN(C)CCC3CCCCCC3)c[nH]c12 | 3.77 nM | 123 nM | Active | Active | Activity [12]: inactive; Activity [13]: Active; Activity [14]: inactive; Activity [15]: inactive; Activity [16]: inactive; Activity [17]: Active; Activity [18]: Active |
| CCN(C)C(=O)Oc1cccc2cc[nH]c12 | – | – | – | – | Activity [8]: 56.2%; inhibition [9]: inactive; inhibition [10]: Active; IC50 [11]: 1390 nM |
| C#CCCCN(C)C(=O)Oc1cccc2c(CN(C)CCC3CCCCCC3)c[nH]c12 | 12.3 nM | 1080 nM | Active | Active | K [4]: 0.015 h⁻¹; deltaG [5]: 24.8 kcal/mol; T1/2 [6]: 46.5 h |
| CN(CCC1CCCCCC1)Cc1c[nH]c2c(OC(=O)N3CCCCC3)cccc12 | 5.28 nM | 529 nM | Active | – | – |
| CCN(C)C(=O)Oc1cccc2c(CN(C)CCC3CCCCCC3)c[nH]c12 | 10.4 nM | 6820 nM | Active | Active | – |
| C#CCN(CC)C(=O)Oc1cccc2c(CN(C)CCC3CCCCCC3)c[nH]c12 | 21.9 nM | 7530 nM | Active | Active | – |
| CC(C)N(C(=O)Oc1cccc2cc[nH]c12)C(C)C | – | – | – | – | Activity [8]: 66.5%; inhibition [9]: inactive; inhibition [10]: inactive; IC50 [11]: 12800 nM |
| C#CCN(C)C(=O)Oc1ccc2c(CN(C)CCC3CCCCCC3)c[nH]c2c1 | 10.2 nM | 1460 nM | inactive | inactive | – |
| CC(C)N(C)C(=O)Oc1cccc2c(CN(C)CCC3CCCCCC3)c[nH]c12 | 114 nM | 2830 nM | Active | Active | – |
| CCN(CC)C(=O)Oc1cccc2c(CN(C)CCC3CCCCCC3)c[nH]c12 | 61 nM | 5590 nM | inactive | Active | K [4]: 0.002 h⁻¹; deltaG [5]: 25.9 kcal/mol; T1/2 [6]: 318 h |
| CN(CCC1CCCCCC1)Cc1c[nH]c2cc(OC(=O)N(C)C)ccc12 | 45.6 nM | 6720 nM | Active | Active | – |
| CN(CCC1CCCCCC1)Cc1c[nH]c2c(O)cccc12 | 373 nM | 11600 nM | – | – | – |
| CC(C)N(C(=O)Oc1cccc2c(CN(C)CCC3CCCCCC3)c[nH]c12)C(C)C | 230 nM | 4630 nM | inactive | inactive | – |
| C#CCN(C(=O)Oc1cccc2c(CN(C)CCC3CCCCCC3)c[nH]c12)C(C)C | 80.5 nM | 5350 nM | inactive | inactive | – |
| O=C(Oc1cccc2cc[nH]c12)N1CCOCC1 | – | – | – | – | Activity [8]: 19.3%; inhibition [10]: inactive; IC50 [11]: 2390 nM |
| C#CCN(C)C(=O)Oc1cccc2c(CN(C)CCC3CCCCCC3)c[nH]c12 | 7.75 nM | 340 nM | Active | – | K [4]: 0.014 h⁻¹; deltaG [5]: 24.8 kcal/mol; T1/2 [6]: 49 h |
| CON(C)C(=O)Oc1cccc2c(CN(C)CCC3CCCCCC3)c[nH]c12 | 158 nM | 1100 nM | inactive | – | – |
| CN(CCC1CCCCCC1)Cc1c[nH]c2c(OC(=O)N(C)C)cccc12 | 1.76 nM | 559 nM | Active | Active | Ki [19]: 1.05 nM; Kobs [20]: 0.447 min⁻¹; Kobs [21]: 3.75 min⁻¹; Ratio IC50 [22]: 300; K [4]: 0.053 h⁻¹; deltaG [5]: 24 kcal/mol; Kobs [23]: 1.85 min⁻¹; IC50 [24]: 5800 nM; IC50 [25]: 7100 nM; K [26]: 0.177 M⁻¹ s⁻¹; T1/2 [6]: 13 h; Kobs [27]: 0.677 min⁻¹ |
| CC(C)N(C(=O)Oc1ccc2c(CN(C)CCC3CCCCCC3)c[nH]c2c1)C(C)C | 86.2 nM | 337 nM | inactive | inactive | – |
